Molecules are shown by their SMILES. Activity calls are given as the source filed them. The calls are words filed in the database; no cut-off is given here.

We go through one compound from ChEMBL document CHEMBL3085706, “Scorpiand-like azamacrocycles prevent the chronic establishment of Trypanosoma cruzi in a murine model” (Eur J Med Chem, 2013).

The subject of data set [1] is Trypanosoma cruzi. Kind of data set: Trypanocidal activity against bloodstream trypomastigote form of Trypanosoma cruzi IRHOD/CO/2008/SN3 infected in BALB/c mouse assessed as reduction of circulating parasite burden at 5 mg/kg, ip administered for 5 to 10 days measured 22 to 60 days post-infection by Neubauer hemocytometric analysis. It counts as functional, organism-based. The arrangement: dose 5 mg/kg.

For data set [2], the system named is Trypanosoma cruzi. Kind of data set: Inhibition of Fe-SOD in Trypanosoma cruzi IRHOD/CO/2008/SN3 epimastigotes assessed as reduction of nitrobluetetrazolium at 12.5 to 25 uM measured for 10 mins by spectrophotometric analysis relative to control.
Data set [3] is described as follows: Selectivity index, ratio of IC50 for African green monkey Vero cells to IC50 for extracellular epimastigote form of Trypanosoma cruzi IRHOD/CO/2008/SN3. The format is toxicity, cell-based. The conditions noted are these: read-out: Ratio IC50.
In data set [4] the test system is Mus musculus. Description: Hepatotoxicity in BALB/c mouse infected with bloodstream trypomastigote form of Trypanosoma cruzi IRHOD/CO/2008/SN3 assessed as centrilobular destruction of hepatic vein at 5 mg/kg/day, ip administered for 5 days measured 150 days post-infection by light microscopic analysis. It counts as toxicity, organism-based. The arrangement: route intraperitoneal. The conditions noted are these: in vivo, 3600 h.

Data set [5] in a line: Selectivity index, ratio of IC50 for African green monkey Vero cells to IC50 for extracellular trypomastigote form of Trypanosoma cruzi IRHOD/CO/2008/SN3. The format is toxicity, cell-based. The conditions noted are these: read-out: Ratio IC50.
Data set [6] relates to Trypanosoma cruzi. Description: Trypanocidal activity against epimastigote form of Trypanosoma cruzi IRHOD/CO/2008/SN3 assessed as inhibition of acetate excretion at IC25 after 96 hrs by NMR spectra analysis. The format is functional, organism-based.
Data set [7] deals with Trypanosoma cruzi. Kind of data set: Trypanocidal activity against bloodstream trypomastigote form of Trypanosoma cruzi IRHOD/CO/2008/SN3 infected in BALB/c mouse assessed as reduction of parasite load in heart at 5 mg/kg/day, ip administered for 5 days measured 150 days post-infection by PCR analysis. It counts as functional, organism-based.
The test system of data set [8] is Mus musculus. Kind of data set: Hepatotoxicity in BALB/c mouse infected with bloodstream trypomastigote form of Trypanosoma cruzi IRHOD/CO/2008/SN3 assessed as presence of necrotic cells in portal space at 5 mg/kg/day, ip administered for 5 days measured 150 days post-infection by light microscopic analysis. The conditions noted are these: in vivo, 3600 h. The arrangement: route intraperitoneal. The format is toxicity, organism-based.

Data set [9] relates to Trypanosoma cruzi. Kind of data set: Trypanocidal activity against epimastigote form of Trypanosoma cruzi IRHOD/CO/2008/SN3 assessed as dispersed cytoplasm at IC25 after 96 hrs by transmission electron microscopic analysis. The format is functional, organism-based.
The subject of data set [10] is Trypanosoma cruzi. Kind of data set: Trypanocidal activity against epimastigote form of Trypanosoma cruzi IRHOD/CO/2008/SN3 assessed as appearance of large vacuoles at IC25 after 96 hrs by transmission electron microscopic analysis. It counts as functional, organism-based.

What is called inhibition is how much of the control response was suppressed. In the case of `Cl.c1cncc(CNCCN2CCNCc3cccc(n3)CNCC2)c1`, the result with Trypanosoma cruzi [1], in the data set with Trypanosoma cruzi [7], in the data set with Trypanosoma cruzi [9] and in the data set with Trypanosoma cruzi [10] was Active. Further, the inhibition with Trypanosoma cruzi [2] was determined as 100%. Moreover, the selectivity ratio was found to be 52.7 in [3] and 21.6 in [5]. The Activity entry in the data set on Mus musculus [4] and with Mus musculus [8] was “Non-toxic” in each case. Further, the inhibition result in the data set with Trypanosoma cruzi [6] was “Active”.
